The values that follow come from US20260034146A1, “NEUROACTIVE 19-ALKOXY-17-S[…], PRODRUGS THEREOF, AND METHODS OF TREATMENT USING SAME” (priority 2012, published 2026).

One assay deals with male Sprague Dawley rats. Briefly: Rat loss of righting reflex (LRR), intravenous bolus. Format: in vivo. The procedure: The plasma pharmacokinetics and a qualitative assessment of sedation were obtained in male Sprague Dawley rats according to the following procedure. Rats were dosed by intravenous bolus dose (60 seconds) via the foot dorsal vein at doses ranging from 5 to 15 mg/kg in an appropriate vehicle. In order to assess sedation, rats were gently restrained by hand to a lateral position for dose administration. […] If the animal was unable to return to an upright position, the time was recorded as the onset of loss of righting reflex (LRR). […] Sluggish or incomplete righting twice consecutively within a 30 second interval qualifies as a loss of righting reflex. After onset of LRR, animals were assessed every 5 minutes in the same manner. Recovery of righting reflex is defined as the ability of a rat to right itself completely within 20 seconds of being placed in dorsal recumbency. The duration of LRR is defined as the time interval between LRR and the return of righting reflex.

The target of assay [1] is rat α1β2γ2L type GABAA receptors expressed in Xenopus laevis oocytes (Rattus norvegicus (Rat), UniProt P62813+P63138, INS375LLRMFSFK). Briefly: Oocyte electrophysiology: potentiation of chloride currents mediated by 2 μM GABA, and direct gating. The format is cell-based. The note with it: ± SEM; for oocyte electrophysiology, ratio of currents in presence/absence of compound, 0.1 μM: 0.1 μM compound; for oocyte electrophysiology, ratio of currents in presence/absence of compound, 0.1 μM / oocyte electrophysiology, ratio of currents in presence/absence of compound, 1 μM / oocyte electrophysiology, ratio of currents in presence/absence of compound, 10 μM: 2 μM GABA control, N≥4 oocytes; for oocyte electrophysiology, ratio of currents in presence/absence of compound, 1 μM: 1 μM compound; for oocyte electrophysiology, ratio of currents in presence/absence of compound, 10 μM: 10 μM compound; for (gating) 10 μM, ratio of compound only current/2 μM GABA current: direct current gated by 10 μM compound in the absence of GABA, N≥4. The procedure: The compounds of the present disclosure were evaluated for the ability to potentiate chloride currents mediated by 2 μM GABA at rat α1β2γ2L type GABAA receptors expressed in Xenopus laevis oocytes and the results are shown in Table 2.
The GABA concentration used for the control response was 2 μM. Each compound was evaluated on at least four different oocytes at the concentrations indicated, and the results reported are the ratio of currents measured in the presence/absence of added compound. Gating represents direct current gated by 10 μM compound in the absence of GABA, and this current is reported as the ratio of compound only current/2 μM GABA current. Error limits are calculated as standard error of the mean (N≥4). Methods used are known in the art (see Jiang, X., et al.).

Another assay has as its system male beagle dogs. The assay is described as follows: Dog duration of lateral recumbence, intravenous bolus. The conditions noted are these: dog dose 5 mg/kg. Format: in vivo. The procedure:
The plasma pharmacokinetics and a qualitative assessment of sedation were obtained in male beagle dogs according to the following procedure. Dogs were dosed by intravenous bolus dose (60 seconds) via the cephalic vein at 5 mg/kg dose in an appropriate vehicle. In order to assess sedation, dogs were gently restrained for dose administration. If decreased muscle tone, limb weakness, or head drop was observed during dose administration, onset of lateral recumbence was recorded. […] Sluggish or incomplete righting to the sternal position qualifies as lateral recumbence. After onset of lateral recumbence, animals were assessed every 5 minutes in the same manner. The duration of lateral recumbence was recorded as the time interval between onset of lateral recumbence and the return to sternal position.

Assay [2] addresses picrotoxin binding site on GABAA receptors. Briefly: [35S]-TBPS displacement (inhibition of [35S]-TBPS binding). The conditions noted are these: duplicate experiments performed in triplicate; ± standard error of the mean. On the procedure:
The IC50 values for non-competitive displacers of [^35S]-TBPS from the picrotoxin binding site on GABAA receptors are reported in Table 1.
^aResults presented are from duplicate experiments performed in triplicate. Error limits are calculated as standard error of the mean. Methods used are known in the art (see Jiang, X., et al., Neurosteroid analogues. 9. Conformationally constrained pregnanes: structure-activity studies of 13,24-cyclo-18,21-dinorcholane analogues of the GABA modulatory and anesthetic steroids (3α,5α)- and […]. J. Med. Chem., 46: 5334-48 (2003)—the contents of which are hereby incorporated by reference in their entirety).

As usually defined, the IC50 is the point on the concentration scale where inhibition reaches its midpoint. Low readings indicate higher potency, high ones lower potency.

Take `COC[C@]12CC[C@@H](O)C[C@@H]1CC[C@H]1[C@@H]3CC[C@H](C#N)[C@@]3(C)CC[C@@H]12` [16, MQ-92, (3α,5α,17β)-3-Hydroxy-19-methoxyandrostane-17-carbonitrile]: the “Duration of Rat LRR” value in the assay with male Sprague Dawley rats (rat dose 5 mg/kg) is reported as “B (B 10-20 min)”. For the same compound, in assay [1], the “oocyte electrophysiology, ratio of currents in presence/absence of compound, 0.1 μM” value was found to be 1.52 ± 0.02; the “oocyte electrophysiology, ratio of currents in presence/absence of compound, 1 μM” value is recorded as 9.79 ± 0.53; the “oocyte electrophysiology, ratio of currents in presence/absence of compound, 10 μM” value is recorded as 25.7 ± 2.11; the “(gating) 10 μM, ratio of compound only current/2 μM GABA current” value is on record as 0.25 ± 0.11. Further, the “Duration of Dog Lateral Recumbence” value in the assay with male beagle dogs was “B (B 10-20 min)”. This compound also came in with an IC50 in assay [2] of 63 ± 7 nM.
`COC[C@]12CC[C@@H](O)C[C@@H]1CC[C@H]1[C@@H]3CC[C@H]([N+](=O)[O-])[C@@]3(C)CC[C@@H]12` [29, MQ-97, (3α,5α,17β)-19-methoxy-17-nitroandrostan-3-ol]: the “Duration of Rat LRR” value in the assay on male Sprague Dawley rats (rat dose 15 mg/kg) is listed as “B (B 10-20 min)”. Moreover, in assay [1], the “oocyte electrophysiology, ratio of currents in presence/absence of compound, 0.1 μM” value worked out at 2.07 ± 0.09; the “oocyte electrophysiology, ratio of currents in presence/absence of compound, 1 μM” value amounted to 15.7 ± 1.45; the “oocyte electrophysiology, ratio of currents in presence/absence of compound, 10 μM” value is 26.6 ± 4.34; the “(gating) 10 μM, ratio of compound only current/2 μM GABA current” value worked out at 0.11 ± 0.01. Besides, the “Duration of Dog Lateral Recumbence” value in the assay on male beagle dogs was “C (C >20 min)”. Also, the IC50 in assay [2] stood at 37 ± 4 nM.
